Source: US4874862A, “Process for preparing guanine derivatives” (Warner-Lambert Company, priority 1987, dated 1989)

System: T-cells
Test: standard test of selective cytotoxicity for T-cells in the presence of 2'-deoxyguanosine
Format: cell-based
Settings: in the presence of 10 uM of 2'-deoxyguanosine
Protocol: PNP-4 activity was measured radiochemically by measuring the formation of [^14 -C]-hypoxanthine from [^14 -C]-inosine [Biomedicine, 33, 39 (1980)] using human erythrocyte as the enzyme source. The same compounds also were found by a standard test (Science, 214, 1137, (1981)] to be selectively cytotoxic for T-cells in the presence of 2'-deoxyguanosine at a similar concentration range. For example, 8-amino-9-[(4-methylphenyl)methyl]guanine is selectively cytotoxic to T-cells at a concentration of about 3.1 uM in the presence of 10 uM of 2'-deoxyguanosine. Similarly, 8-amino-9-[(4-methoxyphenyl)methyl]guanine is selectively cytotoxic to T-cells at a concentration of about 1.1 uM in the presence of 10 uM of 2'-deoxyguanosine. On the other hand, these compounds were nontoxic to B-cells in the presence or absence of the same amount of 2'-deoxyguanosine. Since T-cells play a central role in immune response, use of the compounds of the invention is contemplated for the immunoregulation of rejection in transplantation and autoimmune disease such as rheumatoid arthritis, systemic lupus erythematosus, inflammatory bowel disease, cancer, juvenile diabetes, myasthenia gravis, multiple sclerosis, and viral diseases. […]

Row | Structure (SMILES) | concentration at which selectively cytotoxic to T-cells
1 | Cc1ccc(Cn2c(N)nc3c(=O)[nH]c(N)nc32)cc1 [8-amino-9-[(4-methylphenyl)methyl]guanine] | about 3.1 uM
2 | COc1ccc(Cn2c(N)nc3c(=O)[nH]c(N)nc32)cc1 [8-amino-9-[(4-methoxyphenyl)methyl]guanine] | about 1.1 uM
